From the NIST ThermoML archive (doi:10.1007/s10765-005-8096-3)

Assay: refractive index (Na D-line) (dimensionless); xn = mol fraction of the nth substance listed
Conditions: 101 kPa, Liquid, Standard Abbe refractometry

CC(C)c1ccccc1 [isopropylbenzene] + CCCCOC(C)=O
refractive index
Conditions | 293.15 K | 298.15 K | 303.15 K | 308.15 K | 313.15 K
x2 = 0.0521 | 1.48648 | 1.48385 | 1.48124 | 1.47872 | 1.47599
x2 = 0.0998 | 1.48203 | 1.47941 | 1.47677 | 1.47424 | 1.47156
x2 = 0.151 | 1.47724 | 1.47459 | 1.47198 | 1.46948 | 1.4668
x2 = 0.2043 | 1.47219 | 1.46954 | 1.46694 | 1.46442 | 1.46178
x2 = 0.2496 | 1.4679 | 1.46525 | 1.46266 | 1.46014 | 1.45753
x2 = 0.3036 | 1.46273 | 1.46014 | 1.45758 | 1.45505 | 1.45243
x2 = 0.3578 | 1.45755 | 1.45496 | 1.45242 | 1.44988 | 1.44725
x2 = 0.4021 | 1.45329 | 1.45068 | 1.44815 | 1.44562 | 1.44301
x2 = 0.4514 | 1.4485 | 1.44593 | 1.44338 | 1.44086 | 1.43827
x2 = 0.4994 | 1.44384 | 1.44127 | 1.43873 | 1.43623 | 1.43363
x2 = 0.555 | 1.43843 | 1.43587 | 1.43334 | 1.43083 | 1.42824
x2 = 0.6017 | 1.43384 | 1.4313 | 1.42878 | 1.42629 | 1.42372
x2 = 0.65 | 1.42906 | 1.42655 | 1.42403 | 1.42154 | 1.41898
x2 = 0.6996 | 1.42417 | 1.42165 | 1.41914 | 1.41673 | 1.41413
x2 = 0.7493 | 1.41919 | 1.4167 | 1.41421 | 1.41175 | 1.40924
x2 = 0.8007 | 1.4141 | 1.41161 | 1.40915 | 1.40668 | 1.40412
x2 = 0.8497 | 1.4092 | 1.40674 | 1.40425 | 1.4018 | 1.39927
x2 = 0.8992 | 1.40425 | 1.4018 | 1.39931 | 1.39691 | 1.39437
x2 = 0.95 | 1.39913 | 1.39675 | 1.39426 | 1.39185 | 1.3894
